Results as given in ChEMBL document CHEMBL1134040, “Allyl and propargyl substituted penam sulfones as versatile intermediates toward the syntheses of new beta-lactamase inhibitors” (Bioorg Med Chem Lett, 2001).
Converted amounts (≈) assume the structure as drawn.

How the values were obtained:
Beta-lactamase TEM = Beta-lactamase TEM (Escherichia coli, UniProt P62593); assay: In vitro inhibitory concentration against TEM-1 enzyme
[1] = target: Metallo-beta-lactamase type 2 (Bacteroides fragilis, UniProt P25910); assay: In vitro inhibitory concentration against CCRA enzyme
Chain of Metallo-beta-lactamase type 2 (P25910 whole entry): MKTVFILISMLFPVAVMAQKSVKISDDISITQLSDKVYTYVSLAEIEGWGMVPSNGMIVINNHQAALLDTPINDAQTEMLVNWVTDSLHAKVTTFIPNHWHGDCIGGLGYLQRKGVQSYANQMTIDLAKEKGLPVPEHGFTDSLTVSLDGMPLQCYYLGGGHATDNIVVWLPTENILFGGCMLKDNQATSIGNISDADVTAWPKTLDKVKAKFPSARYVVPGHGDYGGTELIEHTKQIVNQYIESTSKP

Beta-lactamase = Beta-lactamase (Escherichia coli K-12, UniProt P00811); assay: In vitro inhibitory concentration against AmpC enzyme
Chain of Beta-lactamase (P00811 whole entry): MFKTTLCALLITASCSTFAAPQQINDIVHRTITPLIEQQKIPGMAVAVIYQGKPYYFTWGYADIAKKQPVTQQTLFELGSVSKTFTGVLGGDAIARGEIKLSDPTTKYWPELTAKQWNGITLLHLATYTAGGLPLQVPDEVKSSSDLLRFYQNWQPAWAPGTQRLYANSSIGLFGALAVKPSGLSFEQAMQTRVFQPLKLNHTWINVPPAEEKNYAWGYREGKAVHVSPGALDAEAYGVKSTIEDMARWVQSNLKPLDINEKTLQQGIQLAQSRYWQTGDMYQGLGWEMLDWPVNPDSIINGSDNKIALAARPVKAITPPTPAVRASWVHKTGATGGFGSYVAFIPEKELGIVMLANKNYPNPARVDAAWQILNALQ

Escherichia coli [2] = assay: In vitro antibacterial activity against AmpC producing Escherichia coli (GC2894); type: functional
Escherichia coli [3] = assay: In vitro antibacterial activity against TEM-1 producing Escherichia coli (GC2206); type: functional

Chain of Beta-lactamase TEM (P62593 whole entry): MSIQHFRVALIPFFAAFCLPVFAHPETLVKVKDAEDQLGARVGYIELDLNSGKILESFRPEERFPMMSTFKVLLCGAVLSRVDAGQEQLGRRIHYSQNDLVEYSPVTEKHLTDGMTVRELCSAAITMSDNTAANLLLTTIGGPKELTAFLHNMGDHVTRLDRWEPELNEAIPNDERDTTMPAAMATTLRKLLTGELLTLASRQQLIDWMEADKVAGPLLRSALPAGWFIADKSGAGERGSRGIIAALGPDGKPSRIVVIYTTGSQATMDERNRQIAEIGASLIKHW

Compound	IC50 (Beta-lactamase TEM) [µM]	IC50 [1] [µM]	IC50 (Beta-lactamase) [µM]	MIC (Escherichia coli [2]) [µg/mL]	MIC (Escherichia coli [3]) [µg/mL]
CC1(C)[C@H](C(=O)O)N2C(=O)[C@@H](Cc3cn(-c4ccc(F)cc4)nn3)[C@H]2S1(=O)=O	1.6	4.1	3	–	–
CC1(C)[C@H](C(=O)O)N2C(=O)C(C/C=C/C=O)[C@H]2S1(=O)=O (some centres undefined)	12	> 100	17	–	–
CC(=O)/C=C/CC1C(=O)N2[C@@H](C(=O)O)C(C)(C)S(=O)(=O)[C@H]12 (some centres undefined)	8.4	71	100	–	–
CON(C)C(=O)/C=C/CC1C(=O)N2[C@@H](C(=O)O)C(C)(C)S(=O)(=O)[C@H]12 (some centres undefined)	–	> 100	17	–	–
COC(=O)/C=C/CC1C(=O)N2[C@@H](C(=O)O)C(C)(C)S(=O)(=O)[C@@H]12 (some centres undefined)	2.8	1.4	64	–	–
CCN1CCN(C(=O)N[C@@H](C(=O)N[C@@H]2C(=O)N3[C@@H]2SC(C)(C)[C@@H]3C(=O)O)c2ccccc2)C(=O)C1=O [PIPERACILLIN]	–	–	–	> 64	> 64
CC1(C)[C@H](C(=O)O)N2C(=O)[C@@H](Cc3cn(CC(N)Cc4ccc(O)cc4)nn3)[C@H]2S1(=O)=O (some centres undefined)	15	24	6.6	–	–
CC1(C)[C@H](C(=O)O)N2C(=O)[C@@H](Cc3cn(-c4ccc(O)cc4)nn3)[C@H]2S1(=O)=O	0.7	2.1	2.3	–	–
CC1(C)[C@H](C(=O)O)N2C(=O)[C@@H](Cc3cn(CC4CCCN4)nn3)[C@H]2S1(=O)=O (some centres undefined)	7.9	22	5.2	–	–
C[C@]1(Cn2ccnn2)[C@H](C(=O)O)N2C(=O)C[C@H]2S1(=O)=O [TAZOBACTAM]	–	–	–	16 (≈ 53.3 µM)	2 (≈ 6.66 µM)
CC1(C)[C@H](C(=O)O)N2C(=O)C(C/C=C/C#N)[C@@H]2S1(=O)=O (some centres undefined)	24	3.1	> 100	–	–
CC1(C)[C@H](C(=O)O)N2C(=O)[C@@H](Cc3cn(-c4ccccc4)nn3)[C@H]2S1(=O)=O	1	> 100	3.4	–	–
CC1(C)[C@H](C(=O)O)N2C(=O)[C@@H](Cc3cn(-c4ccc(N)cc4)nn3)[C@H]2S1(=O)=O	0.6	1.8	1.4	64 (≈ 158 µM)	32 (≈ 78.9 µM)
COC(=O)/C=C/CC1C(=O)N2[C@@H](C(=O)O)C(C)(C)S(=O)(=O)[C@H]12 (some centres undefined)	8.6	> 100	29	–	–
CC(=O)/C=C/CC1C(=O)N2[C@@H](C(=O)O)C(C)(C)S(=O)(=O)[C@@H]12 (some centres undefined)	6.5	3	40	–	–
